Laboratory results as given in patent publication US20220281846A1, “COMPOUNDS AND COMPOSITIONS FOR THE TREATMENT OF RESPIRATORY DISEASES” (THE UNIVERSITY OF MELBOURNE, priority 2018, published 2022).
Where two headings read alike, the source gives them in different places.

How the values were obtained:
[1] = biological target: T1, human recombinant Casein kinase 18 (CK1δ) (Homo sapiens, UniProt P48730); experiment: Kinase inhibition assay (HotSpot, Reaction Biology Corp), CK1δ; type: biochemical; conditions: 10 μM ATP, 10-dose IC50 mode
T1 construct: purchased Reaction Biology Corp
T1 sequence (P48730 whole entry): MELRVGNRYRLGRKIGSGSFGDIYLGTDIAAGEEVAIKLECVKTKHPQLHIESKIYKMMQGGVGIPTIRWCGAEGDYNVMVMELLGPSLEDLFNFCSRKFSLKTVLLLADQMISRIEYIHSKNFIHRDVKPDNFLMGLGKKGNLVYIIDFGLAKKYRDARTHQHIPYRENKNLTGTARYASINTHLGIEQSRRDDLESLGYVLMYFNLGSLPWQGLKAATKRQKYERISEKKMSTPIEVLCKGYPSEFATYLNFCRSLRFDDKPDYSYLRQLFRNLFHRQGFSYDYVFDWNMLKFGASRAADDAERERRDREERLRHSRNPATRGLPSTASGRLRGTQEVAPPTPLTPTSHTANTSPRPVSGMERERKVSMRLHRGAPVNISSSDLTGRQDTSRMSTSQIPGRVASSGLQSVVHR

ERBB4/HER4 = biological target: T2, ERBB4/HER4 (Homo sapiens, UniProt Q15303); experiment: Kinase inhibition assay (HotSpot), ERBB4/HER4; type: biochemical; conditions: 10 μM ATP, 10-dose IC50 mode; read-out: Compound IC50 (M) ERBB4/HER4
T2 construct: purchased Reaction Biology Corp
T2 sequence (Q15303 26-1308): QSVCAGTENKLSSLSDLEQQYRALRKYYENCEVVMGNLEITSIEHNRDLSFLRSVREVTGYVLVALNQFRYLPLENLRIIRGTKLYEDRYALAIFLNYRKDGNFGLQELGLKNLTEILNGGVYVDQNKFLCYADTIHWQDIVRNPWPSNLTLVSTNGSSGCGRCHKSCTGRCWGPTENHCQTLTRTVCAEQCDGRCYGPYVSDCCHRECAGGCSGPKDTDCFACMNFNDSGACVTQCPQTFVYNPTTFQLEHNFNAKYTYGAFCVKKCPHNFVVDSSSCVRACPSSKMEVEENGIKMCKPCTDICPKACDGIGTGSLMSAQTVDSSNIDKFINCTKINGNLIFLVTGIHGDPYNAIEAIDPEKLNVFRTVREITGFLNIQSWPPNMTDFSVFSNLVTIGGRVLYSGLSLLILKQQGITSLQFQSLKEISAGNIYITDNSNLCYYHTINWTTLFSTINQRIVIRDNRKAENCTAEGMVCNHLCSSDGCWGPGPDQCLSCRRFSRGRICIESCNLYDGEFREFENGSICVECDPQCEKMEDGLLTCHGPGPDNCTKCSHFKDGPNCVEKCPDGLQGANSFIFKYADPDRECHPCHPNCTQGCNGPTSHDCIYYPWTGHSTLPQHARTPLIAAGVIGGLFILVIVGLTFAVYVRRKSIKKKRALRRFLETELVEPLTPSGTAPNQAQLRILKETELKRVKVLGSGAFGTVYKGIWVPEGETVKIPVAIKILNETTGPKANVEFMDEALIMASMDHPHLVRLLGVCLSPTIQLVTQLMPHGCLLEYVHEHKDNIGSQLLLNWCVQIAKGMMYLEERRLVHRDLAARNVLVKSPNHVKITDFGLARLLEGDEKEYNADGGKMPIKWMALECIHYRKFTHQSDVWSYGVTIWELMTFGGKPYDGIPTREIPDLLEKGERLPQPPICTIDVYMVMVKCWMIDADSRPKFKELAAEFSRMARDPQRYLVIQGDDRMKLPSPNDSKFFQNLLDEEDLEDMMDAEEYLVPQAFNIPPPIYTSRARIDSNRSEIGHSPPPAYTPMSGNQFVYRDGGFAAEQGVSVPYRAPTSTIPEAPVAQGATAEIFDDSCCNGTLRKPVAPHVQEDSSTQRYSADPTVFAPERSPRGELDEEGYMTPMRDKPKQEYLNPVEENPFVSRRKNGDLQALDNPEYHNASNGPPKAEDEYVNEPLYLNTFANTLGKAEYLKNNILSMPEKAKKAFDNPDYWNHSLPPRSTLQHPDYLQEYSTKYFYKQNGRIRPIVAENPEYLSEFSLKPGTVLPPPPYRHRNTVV

MINK/MINK1 = biological target: T3, MINK/MINK1 (Homo sapiens, UniProt Q8N4C8); experiment: Kinase inhibition assay (HotSpot), MINK/MINK1; type: biochemical; conditions: 10 μM ATP, 10-dose IC50 mode; read-out: Compound IC50 (M) MINK/MINK1
T3 construct: purchased Reaction Biology Corp
T3 sequence (Q8N4C8 whole entry): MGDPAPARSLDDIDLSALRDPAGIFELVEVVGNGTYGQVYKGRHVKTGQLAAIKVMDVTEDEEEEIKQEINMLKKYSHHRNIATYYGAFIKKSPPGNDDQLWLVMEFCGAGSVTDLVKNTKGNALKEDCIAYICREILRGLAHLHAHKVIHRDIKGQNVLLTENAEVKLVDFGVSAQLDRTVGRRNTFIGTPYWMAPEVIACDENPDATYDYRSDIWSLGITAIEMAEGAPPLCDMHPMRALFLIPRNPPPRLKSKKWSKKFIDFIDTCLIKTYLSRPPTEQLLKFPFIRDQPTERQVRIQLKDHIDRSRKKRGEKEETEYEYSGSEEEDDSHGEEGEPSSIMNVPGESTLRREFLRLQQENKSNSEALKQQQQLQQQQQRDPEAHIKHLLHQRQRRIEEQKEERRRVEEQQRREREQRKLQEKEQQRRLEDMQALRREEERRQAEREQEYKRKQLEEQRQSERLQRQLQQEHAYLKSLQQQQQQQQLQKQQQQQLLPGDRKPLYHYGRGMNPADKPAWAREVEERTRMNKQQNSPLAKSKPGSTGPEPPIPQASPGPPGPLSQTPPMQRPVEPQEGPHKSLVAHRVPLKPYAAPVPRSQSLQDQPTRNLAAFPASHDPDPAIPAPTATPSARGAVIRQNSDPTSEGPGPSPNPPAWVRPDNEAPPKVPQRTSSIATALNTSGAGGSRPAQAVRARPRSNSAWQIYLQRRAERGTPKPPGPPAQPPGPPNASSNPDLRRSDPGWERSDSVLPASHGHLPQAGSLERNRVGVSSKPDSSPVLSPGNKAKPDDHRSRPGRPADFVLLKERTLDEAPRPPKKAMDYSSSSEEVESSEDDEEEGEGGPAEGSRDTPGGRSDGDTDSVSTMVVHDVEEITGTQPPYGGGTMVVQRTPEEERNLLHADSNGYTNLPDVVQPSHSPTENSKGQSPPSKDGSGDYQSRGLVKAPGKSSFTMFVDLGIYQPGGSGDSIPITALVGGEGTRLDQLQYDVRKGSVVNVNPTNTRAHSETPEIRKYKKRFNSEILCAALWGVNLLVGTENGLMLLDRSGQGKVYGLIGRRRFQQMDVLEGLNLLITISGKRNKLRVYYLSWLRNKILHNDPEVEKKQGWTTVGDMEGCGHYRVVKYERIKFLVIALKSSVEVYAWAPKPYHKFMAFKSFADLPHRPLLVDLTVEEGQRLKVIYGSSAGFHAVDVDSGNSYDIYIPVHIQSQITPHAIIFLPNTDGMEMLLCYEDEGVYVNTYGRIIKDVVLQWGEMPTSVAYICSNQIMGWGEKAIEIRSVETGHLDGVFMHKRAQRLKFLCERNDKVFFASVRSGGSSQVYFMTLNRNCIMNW

[2] = test system: TGF-β-induced IL-11 in primary human parenchymal fibroblast cells (pFbs); experiment: Human parenchymal fibroblast cell assay, TGF-β-induced IL-11 (ELISA); type: cell-based; conditions: compounds 0.1-10 μM 30 min prior to TGF-β1, 16-24 hours, 4.00* is assigned to compounds that failed to cause 50% or more inhibition at 10 µM, read-out: pIC50 IL-11 suppression (converted)
Procedure: Human Parenchymal Fibroblast Cell Assay
Primary human parenchymal fibroblast cells (pFbs) were cultured from parenchyma of lung resection specimens and from non-transplanted lungs of donors without chronic respiratory disease. pFbs were passaged in Dulbecco's Modified Eagle's Media (DMEM) containing 10% (v/v) heat-inactivated fetal calf serum (FCS), 15 mM HEPES, 0.2% (v/v) sodium bicarbonate, 2 mM L-glutamine, 1% (v/v) non-essential amino acids, 1% (v/v) sodium pyruvate, 2.5 μg/mL amphotericin, 5 IU/mL penicillin and 50 μg/mL streptomycin. In some experiments the human lung fibroblast cell line, MRC5 (sourced from ATTC) was used as indicated. The MRC5 line was maintained under the same conditions as described for the pFb.
Prior to experimentation, pFb were incubated in serum-free DMEM containing 0.25% bovine serum albumin (BSA) and insulin-transferrin-selenium-containing supplement (Monomed A; CSL, Parkville, Melbourne, Australia). The cells were incubated with small molecular CK1δ inhibitors (0.1-10 μM) for 30 min prior to […] TGF-β1 (R&D Systems, Minneapolis, Minn.) and the incubation continued for 16-24 hours prior to harvest of supernatant for detection of immunoreactive IL-11. Stock solutions were made as 10 mM in 100% DMSO and diluted to the required concentration in medium containing 0.1% DMSO (final concentration).
Supernatants were collected for measurement of IL-11 (R&D DuoSet, DY218) by ELISA following the manufacturers' instructions. Generally, capture antibodies were initially diluted to the recommended concentrations using PBS buffer, and then used to coat the wells of 96-well microplates (Greiner, #655061) by adding 50 μL/well and incubated overnight at room temperature. Next day, solutions were discarded and wells were washed 3 times with wash buffer (PBS containing 0.1% (v/v) Tween-20) prior to the addition of 200 μL of blocking solution (PBS containing 1% (v/v) BSA) for 1 hour to block non-specific sites. Plates were then washed 3 times with wash buffer and 50 μL of samples or standards were then added to wells and incubated for 2 hours at room temperature. After the incubation, plates were washed 3 times with wash buffer and 50 μL of detection antibodies were added to wells and incubated for 2 hours at room temperature. Plates were then washed 3 times before adding streptavidin-conjugated horseradish peroxidase (at the recommended concentrations) for 45 min. Plates were then washed 5 times with wash buffer and 100 μL TMB substrate solution (equal parts A and B, BD Biosciences) was added to each well until sufficient signals emerged. The reactions were inactivated by adding 100 μL sulphuric acid (2M H2SO4). The absorbance was measured at 450 nm using the Multiskan Ascent® plate reader. The absorbance of the cytokine standards was fitted to a logistic equation, allowing the concentrations of cytokine in samples to be determined.
PIC50 values (the negative log of the concentration suppressing IL-11 level by 50%) for inhibition of TGF-β-induced IL-11 were interpolated from the linear regression of log concentration small molecule versus IL-11 level (Table 4 and FIG. 2).

[3] = In vitro metabolic stability, human liver microsomes; type: in vitro ADME
Procedure: Human Microsomal Stability of Compounds of the Invention
In Vitro Metabolic Stability
Incubation: The metabolic stability assay was performed by incubating each test compound in human liver microsomes at 37° C. and a protein concentration of 0.4 mg/mL. The metabolic reaction was initiated by the addition of an NADPH-regenerating system and quenched at various time points over a 60 minute incubation period by the addition of acetonitrile containing diazepam as internal standard. Control samples (containing no NADPH) were included (and quenched at 2, 30 and 60 minutes) to monitor for potential degradation in the absence of cofactor. The human liver microsomes used in this experiment were supplied by XenoTech, lot #1410230. Microsomal incubations were performed at a substrate concentration of 1 μM. Data analysis: Species scaling factors from Ring et al. (2011) JPharmSci, 100:4090-4110 were used to convert the in vitro CLint (μL/min/mg) to an in vivo CLint(mL/min/kg). Hepatic blood clearance and the corresponding hepatic extraction ratio (EH) were calculated using the well stirred model of hepatic extraction in each species, according to the “in vitro T1/2” approach described in Obach (1999) DrugMetab. Dispos. 27:1350-1359. The EH was then used to classify compounds as low(<0.3), intermediate (0.3-0.7), high (0.7-0.95) or very high (>0.95) extraction compounds. Predicted in vivo clearance values have not been corrected for microsomal or plasma protein binding. Species scaling calculations are based on two assumptions: 1) NADPH-dependent oxidative metabolism predominates over other metabolic routes (i.e. direct conjugative metabolism, reduction, hydrolysis, etc.), and; 2) rates of metabolism and enzyme activities in vitro are truly reflective of those that exist in vivo. If significant non-NADPH-mediated degradation is observed in microsome control samples, then assumption (1) is invalid and predicted clearance parameters are therefore not reported.

[4] = test system: interleukin-1α (IL1α)-mediated cytokine production by the lung adenocarcinoma cell line A549; experiment: Cellular assay (A549) against IL1α-mediated cytokine production; type: cell-based, human; conditions: serum starved A549 cells, compound 30 min prior to IL-1α (1 ng/ml) for 24 h, ELISA
Procedure: Cellular Assay (A549 Human Lung Adenocarcinoma Cells) Assessing Effect of ZH3-138, ZH3-126 and PF670462 Against IL1α-Mediated Cytokine Production
The anti-inflammatory potential of selected compounds was examined by establishing the effects on interleukin-1α (IL1α)-mediated cytokine production by the lung adenocarcinoma cell line A549. Serum starved A549 cells were treated with various concentrations of the relevant CK1δ inhibitor (PF670462, ZH3-126 and ZH3-138) 30 min prior to IL-1α (1 ng/ml) for 24 h. Supernatant was collected and concentration of IL-6, IL-8 and GM-CSF was detected by ELISA. Data are presented as mean±SEM across three replicates in FIG. 7 (A: IL-6; B: IL-8 and C: GM-CSF).

- IC50 ([1]; read-out: Compound IC50 (M) CK1δ): 6.38e-10 M
- IC50 ([1]; casein kinase 1δ, read-out: pIC50 (converted)): 6.46e-10 M
- IC50 (ERBB4/HER4): 9.52e-06 M
- IC50 (MINK/MINK1): 1.99e-07 M
- Predicted EH (hepatic extraction ratio) ([3]; human liver microsomes): 0.22
- microsomal CLint at 1 μM ([3]; human liver microsomes, 1 μM): 7 µL/min/mg
- half-life at 1 μM ([3]; human liver microsomes, 1 μM, 0.4 mg/mL protein, 37° C.): 4.03 h
- Predicted CLblood ([3]; scaled from human liver microsomes, well stirred model): 5 mL/min/kg
- CLint scaled at 1 μM ([3]; scaled from human liver microsomes, read-out: Predicted CLint, in vivo): 6 mL/min/kg
SMILES: CCn1cnc(-c2ccc(F)cc2)c1-c1ccnc(NCCO)n1 [ZH3-126, 2-((4-(1-Ethyl-4-(4-fluorophenyl)-1H-imidazol-5-yl)pyrimidin-2-yl)amino)ethan-1-ol]
- IC50 [2]: 1860 nM
- supernatant concentrations of inflammatory biomarkers (IL-6, IL-8, GM-CSF) [4]: ability to reduce supernatant concentrations of other inflammatory biomarkers
